# In patent publication US6627202B2, “HBV core antigen particles with multiple immunogenic components attached via peptide ligands” (Biogen, Inc., priority 1998, dated 2003):
# Several values for one entry are separate records, joined by “and”; a condition that tells them apart may be missing. Identical values can stand only once. Non-standard residues stand in square brackets, D forms with d. No end group written: not given here. βAla = NCCC(=O)O
# Columns and labels:
# [1] = molecular target: binding of L HBsAg to HBV core antigen (Hepatitis B virus genotype D subtype adw, UniProt P03147); conditions: N/D represents no observable inhibition; read-out: IC50 μM, concentration of peptide required to inhibit binding of L HBsAg to HBV core antigen at a half maximal level; cited from earlier work
# Sequence of binding of L HBsAg to HBV core antigen (P03147 3-183): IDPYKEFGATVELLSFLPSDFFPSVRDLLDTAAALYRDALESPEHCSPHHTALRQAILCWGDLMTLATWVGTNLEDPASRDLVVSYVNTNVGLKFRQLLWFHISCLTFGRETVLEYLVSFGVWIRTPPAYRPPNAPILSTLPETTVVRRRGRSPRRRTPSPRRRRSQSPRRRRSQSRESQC
# [2] = molecular target: HBV core antigen (Hepatitis B virus genotype D subtype adw, UniProt P03147); conditions: fd fusion phage carrying the peptide sequence in the amino terminal region of gpIII; in solution, phage associated form; read-out: KD^Rel (nM) relative dissociation constant; cited from earlier work
# Sequence of HBV core antigen (P03147 3-183): as above
# [3] = storage stability of HBV core antigen preparations; format: physicochemical; conditions: 4° C., sucrose gradient fractions in TBS, sucrose (20%), NaN3 (0.02%)
# Protocol: Expression of either HBV core antigen (aa3-183) or C-terminally truncated HBV core antigen aa3-148) in E.coli and purification were performed as described in Dyson and Murray (1995). Protein preparations were stored at 4° C. as sucrose gradient fractions in a buffer containing TBS, sucrose (20%) and NaN3 (0.02%).
Molecule,IC50 [1],Kd [2],other results
MHRSLLGRMKGAG(β-A)GC,3.8 ± 0.69 µM,–,–
DGSLLGRMKGAA,3 ± 0.4 µM,–,–
LLGRMKG,46.2 ± 7.4 µM,–,–
ADGALLGRMKRA,–,181 ± 12 nM,–
ADGSLLGRMKGAAG,4.5 ± 0.8 µM,–,–
RSLLGRMKGA,0.29 ± 0.02 µM,–,–
ADGAHRSLLGRMKGA,–,0.94 ± 0.12 nM,–
ADGALLGRMKPA,–,767 ± 8 nM,–
ADGYQRSLLGRMKGA,–,0.88 ± 0.08 nM,–
ADGSLLGRMKPA,–,322 ± 50 nM,–
RSLLGRMKGA(β-A)C (RSLLGRMKGA[βAla]C),0.29 ± 0.03 µM,–,–
ADGTLLGRMKLA,–,20 ± 2 nM,–
ADGHRSSLLGRMKGA,–,1.4 ± 0.13 nM,–
LGRMKG,980 ± 157 µM,–,–
ALLGRMKG,10 µM and 11 µM,–,–
SLLGRMKG(β-A)C (SLLGRMKG[βAla]C),1.8 ± 0.4 µM,–,–
ADGTQRSLLGRMKGA,–,0.84 ± 0.06 nM,–
SLLGRMK,40.7 ± 4.8 µM,–,–
CLLGRMKC,652 ± 74 µM,–,–
HRSLLGRMKGA,0.5 ± 0.04 µM,–,–
ADGPRSSLLGRMKGA,–,0.84 ± 0.07 nM,–
SLLGRMKG,6.4 ± 0.7 µM,–,–
ACSLLGRMKG,26.2 ± 5 µM,–,–
SLLGRMKGA,2.4 ± 0.2 µM,–,–
ADGSRSSLLGRMKGA,–,1.96 ± 0.32 nM,–
ADRSLLGRMKGA,–,1.09 ± 0.02 nM,–
MHRSLLGRMKGA,0.8 ± 0.1 µM,–,–
C-terminally truncated HBV core antigen aa3-148: C-terminally truncated HBV core antigen expressed in E.coli (protein) IDPYKEFGATVELLSFLPSDFFPSVRDLLDTASALYREALESPEHCSPHHTALRQAILCWGELMTLATWVGVNLEDPASRDLVVSYVNTNMGLKFRQLLWFHISCLTFGRETVIEYLVSFGVWIRTPPAYRPPNAPILSTLPETTV,–,–,stability of protein preparation on storage [3]: stable in this form for at least six months
